What was measured:
[1] = Stability of natamycin solutions in propylene glycol and aqueous potassium formate (residual natamycin by HPLC); format: physicochemical; conditions: natamycin 1% (w/w)
Experimental: (§1) Natamycin concentrations were determined using […] as follows. • HPLC system: Waters iClass • Column: Waters Symmetry C18, 4.6×150 mm, 3.5 μm, Part No. WAT200632, Column no. 1483, Lot no. 0198313011 • Column temperature: 25° C. • Eluent A: 50 mM ammonium acetate buffer pH 5.8 (with acetic acid) • Eluent B: Acetonitrile • Wash: 60% acetonitrile/40% water (v/v) • Injection volume: 10 μl • Injector temperature: 10° C. in darkness • Flow: 1 mL/min
(§2) The reverse phase HPLC uses a UV detector to determine the residual concentration of natamycin at 303 nm. A set of standard dilutions containing subsequently increasing concentrations of natamycin in methanol was made and from these a calibration curve was obtained. The concentration of natamycin should not exceed a concentration of 88 mg/L. Generally, the dilutions contained 20 mg of sample and […] of methanol.
A 3.5 M solution of potassium formate in water (15.17 g) was mixed with propylene glycol (80.32 g) and natamycin (1.059 g) and heated for 2.57 h until a final temperature of 105° C. A second batch was prepared by mixing a 3.5 M solution of potassium formate in water (15.07 g) with propylene glycol (80.5 g) and natamycin (1.032 g) and heating for 3.25 h until a final temperature of 105° C. Both batches were filtered over a 2 μm filter and combined to give a solution with a natamycin concentration of 1.08% (w/w). […] Samples of the mixtures were analyzed over time by HPLC for residual natamycin concentration. The shelf life test of the mixtures was done by storage at low temperatures (4-7° C.) and ambient temperatures (20-24° C.).

[2] = neutral pH values; cited from earlier work
[3] = Stability of natamycin solutions in propylene glycol and aqueous sodium acetate or potassium acetate (residual natamycin by HPLC); format: physicochemical; conditions: 4-7° C., natamycin 1%
Experimental: as §1, §2
A 4.4 M solution of sodium acetate or a 5 M solution of potassium acetate in water (3 g) was mixed with propylene glycol (16 g) and natamycin (0.2 g) and heated until a final temperature of 105° C. to give a solution with a natamycin concentration of 1% (w/w). […] Samples of the mixtures were analyzed over time by HPLC for residual natamycin concentration. The shelf life test of the mixtures was done by storage at low temperatures (4-7° C.) and ambient temperatures (20-23° C.).

[4] = Stability of natamycin solutions in aqueous potassium sorbate (residual natamycin by HPLC); format: physicochemical
Experimental: as §1, §2
To obtain a 1% solution, 33 mg of natamycin was used instead of 0.2 g and heating during dissolution was omitted, resulting in a salt/natamycin ratio of 45 (w/w) or 200 (mole/mole). Samples of the mixtures were analyzed over time by HPLC for residual natamycin concentration. The shelf life test of the mixtures was done by storage at low temperatures (4-7° C.) and ambient temperatures (20-24° C.).

C[C@@H]1C/C=C/C=C/C=C/C=C/[C@H](O[C@@H]2O[C@H](C)[C@@H](O)[C@H](N)[C@@H]2O)C[C@@H]2O[C@](O)(C[C@@H](O)C[C@H]3O[C@@H]3/C=C/C(=O)O1)C[C@H](O)[C@H]2C(=O)O [natamycin]
Residual natamycin (%) ([1]; Blank (water instead of potassium formate), propylene glycol, 4-7° C., pH 6.2, day 0): 80% | Residual natamycin (%) ([1]; Blank (water instead of potassium formate), propylene glycol, 4-7° C., pH 6.2, day 14): 43% | Residual natamycin (%) ([1]; Blank (water instead of potassium formate), propylene glycol, 4-7° C., pH 6.2, day 23): 22% | Residual natamycin (%) ([1]; Blank (water instead of potassium formate), propylene glycol, 4-7° C., pH 6.2, day 32): 12% | Residual natamycin (%) ([1]; Blank (water instead of potassium formate), propylene glycol, 4-7° C., pH 6.2, day 35): 7% | Residual natamycin (%) ([1]; Blank (water instead of potassium formate), propylene glycol, 20-24° C., pH 6.3, day 0): 83% | Residual natamycin (%) ([1]; Blank (water instead of potassium formate), propylene glycol, 20-24° C., pH 6.3, day 5): 72% | Residual natamycin (%) ([1]; Blank (water instead of potassium formate), propylene glycol, 20-24° C., pH 6.3, day 7): 66% | Residual natamycin (%) ([1]; Blank (water instead of potassium formate), propylene glycol, 20-24° C., pH 6.3, day 12): 55% | Residual natamycin (%) ([1]; Blank (water instead of potassium formate), propylene glycol, 20-24° C., pH 6.3, day 14): 52% | Residual natamycin (%) ([1]; Blank (water instead of potassium formate), propylene glycol, 20-24° C., pH 6.3, day 25): 31% | Residual natamycin (%) ([1]; Blank (water instead of potassium formate), propylene glycol, 20-24° C., pH 6.3, day 27): 25% | Residual natamycin (%) ([1]; Blank (water instead of potassium formate), propylene glycol, 20-24° C., pH 6.3, day 43): 18% | Residual natamycin (%) ([1]; Blank (water instead of potassium formate), propylene glycol, 20-24° C., pH 6.3, day 74): 6% | Residual natamycin (%) ([1]; propylene glycol + aqueous potassium formate, 4-7° C., pH 9.5, day 0): 111% | Residual natamycin (%) ([1]; propylene glycol + aqueous potassium formate, 4-7° C., pH 9.5, day 5): 114% | Residual natamycin (%) ([1]; propylene glycol + aqueous potassium formate, 4-7° C., pH 9.5, day 14): 114% | Residual natamycin (%) ([1]; propylene glycol + aqueous potassium formate, 4-7° C., pH 9.5, day 23): 112% | Residual natamycin (%) ([1]; propylene glycol + aqueous potassium formate, 4-7° C., pH 9.5, day 43): 108% | Residual natamycin (%) ([1]; propylene glycol + aqueous potassium formate, 4-7° C., pH 9.8, day 0): 96% | Residual natamycin (%) ([1]; propylene glycol + aqueous potassium formate, 4-7° C., pH 9.8, day 4): 96% | Residual natamycin (%) ([1]; propylene glycol + aqueous potassium formate, 4-7° C., pH 9.8, day 10): 97% | Residual natamycin (%) ([1]; propylene glycol + aqueous potassium formate, 4-7° C., pH 9.8, day 15): 88% | Residual natamycin (%) ([1]; propylene glycol + aqueous potassium formate, 4-7° C., pH 9.8, day 18): 92% | Residual natamycin (%) ([1]; propylene glycol + aqueous potassium formate, 4-7° C., pH 9.8, day 25): 91% | Residual natamycin (%) ([1]; propylene glycol + aqueous potassium formate, 4-7° C., pH 9.8, day 42): 88% | Residual natamycin (%) ([1]; propylene glycol + aqueous potassium formate, 4-7° C., pH 9.8, day 53): 90% | Residual natamycin (%) ([1]; propylene glycol + aqueous potassium formate, 4-7° C., pH 9.8, day 60): 96% | Residual natamycin (%) ([1]; propylene glycol + aqueous potassium formate, 4-7° C., pH 9.8, day 80): 87% | Residual natamycin (%) ([1]; propylene glycol + aqueous potassium formate, 4-7° C., pH lowered to 5.9 by formic acid, day 0): 83% | Residual natamycin (%) ([1]; propylene glycol + aqueous potassium formate, 4-7° C., pH lowered to 5.9 by formic acid, day 5): 66% | Residual natamycin (%) ([1]; propylene glycol + aqueous potassium formate, 4-7° C., pH lowered to 5.9 by formic acid, day 14): 45% | Residual natamycin (%) ([1]; propylene glycol + aqueous potassium formate, 4-7° C., pH lowered to 5.9 by formic acid, day 23): 21% | Residual natamycin (%) ([1]; propylene glycol + aqueous potassium formate, 4-7° C., pH lowered to 5.9 by formic acid, day 43): 2% | Residual natamycin (%) ([1]; propylene glycol + aqueous potassium formate, 4-7° C., pH lowered to 8.8 by formic acid, day 0): 94% | Residual natamycin (%) ([1]; propylene glycol + aqueous potassium formate, 4-7° C., pH lowered to 8.8 by formic acid, day 5): 96% | Residual natamycin (%) ([1]; propylene glycol + aqueous potassium formate, 4-7° C., pH lowered to 8.8 by formic acid, day 14): 94% | Residual natamycin (%) ([1]; propylene glycol + aqueous potassium formate, 4-7° C., pH lowered to 8.8 by formic acid, day 23): 93% | Residual natamycin (%) ([1]; propylene glycol + aqueous potassium formate, 4-7° C., pH lowered to 8.8 by formic acid, day 43): 86% | Residual natamycin (%) ([1]; propylene glycol + aqueous potassium formate, 4-7° C., pH lowered to 9.0 by formic acid, day 0): 93% | Residual natamycin (%) ([1]; propylene glycol + aqueous potassium formate, 4-7° C., pH lowered to 9.0 by formic acid, day 5): 97% | Residual natamycin (%) ([1]; propylene glycol + aqueous potassium formate, 4-7° C., pH lowered to 9.0 by formic acid, day 14): 94% | Residual natamycin (%) ([1]; propylene glycol + aqueous potassium formate, 4-7° C., pH lowered to 9.0 by formic acid, day 23): 93% | Residual natamycin (%) ([1]; propylene glycol + aqueous potassium formate, 4-7° C., pH lowered to 9.0 by formic acid, day 43): 92% | Residual natamycin (%) ([1]; propylene glycol + aqueous potassium formate, 20-24° C., pH 9.8, day 0): 92% | Residual natamycin (%) ([1]; propylene glycol + aqueous potassium formate, 20-24° C., pH 9.8, day 5): 95% | Residual natamycin (%) ([1]; propylene glycol + aqueous potassium formate, 20-24° C., pH 9.8, day 7): 95% | Residual natamycin (%) ([1]; propylene glycol + aqueous potassium formate, 20-24° C., pH 9.8, day 9): 92% | Residual natamycin (%) ([1]; propylene glycol + aqueous potassium formate, 20-24° C., pH 9.8, day 12): 87% | Residual natamycin (%) ([1]; propylene glycol + aqueous potassium formate, 20-24° C., pH 9.8, day 18): 92% | Residual natamycin (%) ([1]; propylene glycol + aqueous potassium formate, 20-24° C., pH 9.8, day 20): 87% | Residual natamycin (%) ([1]; propylene glycol + aqueous potassium formate, 20-24° C., pH 9.8, day 27): 86% | Residual natamycin (%) ([1]; propylene glycol + aqueous potassium formate, 20-24° C., pH 9.8, day 32): 82% | Residual natamycin (%) ([1]; propylene glycol + aqueous potassium formate, 20-24° C., pH 9.8, day 35): 83% | Residual natamycin (%) ([1]; propylene glycol + aqueous potassium formate, 20-24° C., pH 9.8, day 43): 80% | Residual natamycin (%) ([1]; propylene glycol + aqueous potassium formate, 20-24° C., pH 9.8, day 74): 69% | solubility in water [2]: around 0.04 g/kg | Residual natamycin (%) ([3]; Blank (absence of sodium), propylene glycol, pH 6.2, day 0): 80% | Residual natamycin (%) ([3]; Blank (absence of sodium), propylene glycol, pH 6.2, day 12): 43% | Residual natamycin (%) ([3]; Blank (absence of sodium), propylene glycol, pH 6.2, day 23): 22% | Residual natamycin (%) ([3]; Blank (absence of sodium), propylene glycol, pH 6.2, day 30): 12% | Residual natamycin (%) ([3]; Blank (absence of sodium), propylene glycol, pH 6.2, day 31): 7% | Residual natamycin (%) ([3]; Blank (absence of sodium), propylene glycol, pH 6.2, day 50): 1% | Residual natamycin (%) ([3]; propylene glycol + aqueous sodium acetate, pH 8.2, day 0): 98% | Residual natamycin (%) ([3]; propylene glycol + aqueous sodium acetate, pH 8.2, day 31): 72% | Residual natamycin (%) ([3]; propylene glycol + aqueous sodium acetate, pH 8.2, day 51): 58% | Residual natamycin (%) ([4]; 4-7° C., pH 9.7, natamycin 6% (w/w), day 0): 103% | Residual natamycin (%) ([4]; 4-7° C., pH 9.7, natamycin 6% (w/w), day 5): 103% | Residual natamycin (%) ([4]; 4-7° C., pH 9.7, natamycin 6% (w/w), day 6): 99% | Residual natamycin (%) ([4]; 4-7° C., pH 9.7, natamycin 6% (w/w), day 12): 100% | Residual natamycin (%) ([4]; 4-7° C., pH 9.7, natamycin 6% (w/w), day 31): 92% | Residual natamycin (%) ([4]; 4-7° C., pH 9.7, natamycin 6% (w/w), day 42): 92% | Residual natamycin (%) ([4]; 4-7° C., pH 9.7, natamycin 6% (w/w), day 49): 88% | Residual natamycin (%) ([4]; 4-7° C., pH 9.7, natamycin 6% (w/w), day 69): 80% | Residual natamycin (%) ([4]; 20-24° C., pH 9.6, natamycin 6% (w/w), day 0): 105% | Residual natamycin (%) ([4]; 20-24° C., pH 9.6, natamycin 6% (w/w), day 2): 104% | Residual natamycin (%) ([4]; 20-24° C., pH 9.6, natamycin 6% (w/w), day 6): 98% | Residual natamycin (%) ([4]; 20-24° C., pH 9.6, natamycin 6% (w/w), day 8): 98% | Residual natamycin (%) ([4]; 20-24° C., pH 9.6, natamycin 6% (w/w), day 15): 97% | Residual natamycin (%) ([4]; 20-24° C., pH 9.6, natamycin 6% (w/w), day 20): 95% | Residual natamycin (%) ([4]; 20-24° C., pH 9.6, natamycin 6% (w/w), day 23): 93% | Residual natamycin (%) ([4]; 20-24° C., pH 9.6, natamycin 6% (w/w), day 34): 81% | Residual natamycin (%) ([4]; 20-24° C., pH 9.6, natamycin 6% (w/w), day 65): 73% | Residual natamycin (%) ([4]; 20-24° C., pH 9.9, natamycin 1% (w/w), day 0): 104% | Residual natamycin (%) ([4]; 20-24° C., pH 9.9, natamycin 1% (w/w), day 2): 101% | Residual natamycin (%) ([4]; 20-24° C., pH 9.9, natamycin 1% (w/w), day 6): 97% | Residual natamycin (%) ([4]; 20-24° C., pH 9.9, natamycin 1% (w/w), day 8): 94% | Residual natamycin (%) ([4]; 20-24° C., pH 9.9, natamycin 1% (w/w), day 15): 88% | Residual natamycin (%) ([4]; 20-24° C., pH 9.9, natamycin 1% (w/w), day 20): 79% | Residual natamycin (%) ([4]; 20-24° C., pH 9.9, natamycin 1% (w/w), day 23): 80% | Residual natamycin (%) ([4]; 20-24° C., pH 9.9, natamycin 1% (w/w), day 34): 62% | Residual natamycin (%) ([4]; 20-24° C., pH 9.9, natamycin 1% (w/w), day 65): 45%

Source: patent US20210227837A1, “NATAMYCIN FOR THE PRESERVATION OF A BAKED PRODUCT” (DSM IP ASSETS B.V., priority 2018, published 2021)
